Values quoted from earlier work in patent publication US20240139133A1, “TOPICAL NAPROXEN FORMULATIONS AND THEIR USE” (SMARTECH TOPICAL, INC., priority 2021, published 2024).

Details: printed as a negative log P

log P: ~-0.5
Compound: CCOCCOCCO [Transcutol, 2-(2-Ethoxyethoxy)ethanol]
